# Assay results taken from patent publication US20220281848A1, “PYRAZOLE-SUBSTITUTED PYRROLIDINONES AS HERBICIDES” (FMC Corporation, priority 2019, published 2022).
# Key:
# Assay type in all cases: in vivo
# [1] = system: barnyardgrass (Echinochloa crus-galli, ECHCG); experiment: Test A pre-emergence, barnyardgrass; details: after 13 d
# How it was run: (§1)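 Values are percent plant damage 13 d after a pre-emergence spray (15.625, 62.5 or 250 g/ha; acetone/water with 0.5% Tween 20) applied to pots one day post-sowing, under glasshouse conditions of 24/16° C. and twice-daily watering.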
# [2] = system: ivy-leaved morning glory (Ipomoea hederacea, IPOHE); experiment: Test A pre-emergence, ivy-leaved morning glory; details: after 13 d
# How it was run: as §1
# [3] = system: velvetleaf (Abutilon theophrasti, ABUTH); experiment: Test A pre-emergence, velvetleaf; details: after 13 d
# How it was run: as §1
# corn (Zea mays, ZEAMX) = experiment: Test A post-emergence, corn; details: after 13 d
# How it was run: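 Post-emergence spray at 8 d after sowing; doses 15.625, 62.5 or 250 g/ha in acetone/water 50:50 + 0.5% Tween 20. Glasshouse 24/16 °C, 14 h light, 65% RH, watered twice daily. Visual damage rating 0–100 at 13 d.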
# plants = experiment: Test D post-emergence, other plants of Tables D2 and D4; details: "Cereals" Postemergent, evaluated after 15 d
# Protocol: A formulation containing 50 g/L of the test chemical was prepared by dissolving the active ingredient in a mixture of organic solvents and emulsifier, details of which are provided in the table. This formulation was then mixed with a small, variable amount of acetone to aid dissolution, before addition of a 0.2% v/v aqueous solution of an adjuvant, as the aqueous diluent, to form an aqueous spray solution which contains a predetermined concentration of the active ingredient.
# This aqueous spray solution was then sprayed onto plants including maize and wheat that had been seed treated with a herbicide safener, after one day's cultivation (for pre-emergence) or after about 12 days' cultivation (for post-emergence). The plants were grown from seeds sown in standard soil, placed in a glasshouse under controlled conditions (at 24/18° C. or 20/16° C., day/night; 16 h light; 65% humidity). After spray application the plants were then grown in a glasshouse under the same conditions and watered twice daily. After 15 d for post-emergence and 20 DAA for pre-emergence the test was evaluated (100=total damage to plant; 0=no damage to plant).
compound,measurement,setting,value
CN1CC(c2cc(C(F)(F)F)n(C)n2)C(C(=O)Nc2ccc(F)c(F)c2F)C1=O (racemic) [Compound 17],damage to plant (100=total damage; 0=no damage) ECHCG,[1]; Pre-Emergence at 15.625 g/ha,90
same,damage to plant (100=total damage; 0=no damage) ECHCG,[1]; Pre-Emergence at 62.5 g/ha,100
same,damage to plant (100=total damage; 0=no damage) ECHCG,[1]; Pre-Emergence at 250 g/ha,100
same,damage to plant (100=total damage; 0=no damage) IPOHE,[2]; Pre-Emergence at 15.625 g/ha,0
same,damage to plant (100=total damage; 0=no damage) IPOHE,[2]; Pre-Emergence at 62.5 g/ha,0
same,damage to plant (100=total damage; 0=no damage) IPOHE,[2]; Pre-Emergence at 250 g/ha,20
same,damage to plant (100=total damage; 0=no damage) ABUTH,[3]; Pre-Emergence at 15.625 g/ha,0
same,damage to plant (100=total damage; 0=no damage) ABUTH,[3]; Pre-Emergence at 62.5 g/ha,0
same,damage to plant (100=total damage; 0=no damage) ABUTH,[3]; Pre-Emergence at 250 g/ha,10
same,damage to plant (100=total damage; 0=no damage) ZEAMX,"corn (Zea mays, ZEAMX); Post-Emergence at 15.625 g/ha",10
same,damage to plant (100=total damage; 0=no damage) ZEAMX,"corn (Zea mays, ZEAMX); Post-Emergence at 62.5 g/ha",50
same,damage to plant (100=total damage; 0=no damage) ZEAMX,"corn (Zea mays, ZEAMX); Post-Emergence at 250 g/ha",80
same,ALOMY damage rating (100=total damage to plant; 0=no damage to plant),plants; Rates 130,30
same,ALOMY damage rating (100=total damage to plant; 0=no damage to plant),plants; Rates 250,50
same,ALOMY damage rating (100=total damage to plant; 0=no damage to plant),plants; Rates 500,70
same,AVEFA damage rating (100=total damage to plant; 0=no damage to plant),plants; Rates 130,0
same,AVEFA damage rating (100=total damage to plant; 0=no damage to plant),plants; Rates 250,30
same,AVEFA damage rating (100=total damage to plant; 0=no damage to plant),plants; Rates 500,60
same,BEAVA damage rating (100=total damage to plant; 0=no damage to plant),plants; Rates 130,10
same,BEAVA damage rating (100=total damage to plant; 0=no damage to plant),plants; Rates 250,20
same,BEAVA damage rating (100=total damage to plant; 0=no damage to plant),plants; Rates 500,20
same,BROTE damage rating (100=total damage to plant; 0=no damage to plant),plants; Rates 130,0
same,BROTE damage rating (100=total damage to plant; 0=no damage to plant),plants; Rates 250,10
same,BROTE damage rating (100=total damage to plant; 0=no damage to plant),plants; Rates 500,20
same,BRSNN damage rating (100=total damage to plant; 0=no damage to plant),plants; Rates 130,0
same,BRSNN damage rating (100=total damage to plant; 0=no damage to plant),plants; Rates 250,20
same,BRSNN damage rating (100=total damage to plant; 0=no damage to plant),plants; Rates 500,20
same,CHEAL damage rating (100=total damage to plant; 0=no damage to plant),plants; Rates 130,0
same,CHEAL damage rating (100=total damage to plant; 0=no damage to plant),plants; Rates 250,60
same,CHEAL damage rating (100=total damage to plant; 0=no damage to plant),plants; Rates 500,50
same,GALAP damage rating (100=total damage to plant; 0=no damage to plant),plants; Rates 130,0
same,GALAP damage rating (100=total damage to plant; 0=no damage to plant),plants; Rates 250,40
same,GALAP damage rating (100=total damage to plant; 0=no damage to plant),plants; Rates 500,30
same,HORVW damage rating (100=total damage to plant; 0=no damage to plant),plants; Rates 130,10
same,HORVW damage rating (100=total damage to plant; 0=no damage to plant),plants; Rates 250,40
same,HORVW damage rating (100=total damage to plant; 0=no damage to plant),plants; Rates 500,80
same,KCHSC damage rating (100=total damage to plant; 0=no damage to plant),plants; Rates 130,0
same,KCHSC damage rating (100=total damage to plant; 0=no damage to plant),plants; Rates 250,0
same,KCHSC damage rating (100=total damage to plant; 0=no damage to plant),plants; Rates 500,20
same,LOLPE damage rating (100=total damage to plant; 0=no damage to plant),plants; Rates 130,0
same,LOLPE damage rating (100=total damage to plant; 0=no damage to plant),plants; Rates 250,30
same,LOLPE damage rating (100=total damage to plant; 0=no damage to plant),plants; Rates 500,60
same,POAAN damage rating (100=total damage to plant; 0=no damage to plant),plants; Rates 130,60
same,POAAN damage rating (100=total damage to plant; 0=no damage to plant),plants; Rates 250,80
same,POAAN damage rating (100=total damage to plant; 0=no damage to plant),plants; Rates 500,90
same,POLCO damage rating (100=total damage to plant; 0=no damage to plant),plants; Rates 130,0
same,POLCO damage rating (100=total damage to plant; 0=no damage to plant),plants; Rates 250,0
same,POLCO damage rating (100=total damage to plant; 0=no damage to plant),plants; Rates 500,10
same,SINAR damage rating (100=total damage to plant; 0=no damage to plant),"plants; SINAR, Rates 500",60
